Laboratory results published in US20050107423A1, “Quinolone antibacterial agents” (priority 2003, published 2005).
Values after ≈ are worked out from the molar mass of the structure shown.

Legend:
Test in all cases: Antibacterial assay, microtitration MIC (Test A)
Assay type in all cases: cell-based
H. influenzae HI-3542 = details: strain HI-3542; for MIC: Haemophilus influenzae, HI3542, Gram Negative Bacteria, read-out: Minimum Inhibitory Concentrations H. influenzae HI-3542
Procedure: (§1) The compounds of the present invention were tested against an assortment of Gram-negative and Gram-positive organisms using standard microtitration techniques (Cohen et. al., Antimicrob., 1985;28:766; Heifetz, et. al., Antimicrob., 1974;6:124). The results of the evaluation are shown in Tables 1A and B, wherein “-” means no data.

M. catarrhalis BC-3531 = details: strain BC-3531; for MIC: Moraxella catarrhalis, BC3531, Gram Negative Bacteria, read-out: Minimum Inhibitory Concentrations M. catarrhalis BC-3531; for Minimum Inhibitory Concentrations M. catarrhalis BC-3531: Gram Negative Bacteria
Procedure: as §1

E. coli EC-2549 = details: strain EC-2549; for MIC: Escherichia coli, EC2549, Gram Negative Bacteria, read-out: Minimum Inhibitory Concentrations E. coli EC-2549
Procedure: as §1

S. pneumo SV-1 = details: Gram Positive Bacteria; strain SV-1; read-out: Minimum Inhibitory Concentrations S. pneumo SV-1
Procedure: as §1

E. faecalis MGH-2 = details: Enterococcus faecalis, MGH2, Gram Positive Bacteria; strain MGH-2; read-out: Minimum Inhibitory Concentrations E. faecalis MGH-2
Procedure: as §1

S pyogenes C203 = details: Gram Positive Bacteria; strain C203; read-out: Minimum Inhibitory Concentrations S pyogenes C203
Procedure: as §1

Structure (SMILES)	MIC (H. influenzae HI-3542) [µg/mL]	MIC (M. catarrhalis BC-3531) [µg/mL]	MIC (E. coli EC-2549) [µg/mL]	other results
O=C(O)c1cn(C2CC2)c2c(Cl)c(N3CCC(C(O)C(F)(F)F)C3)c(F)cc2c1=O (centres unmarked)	0.004 (≈ 0.00891 µM)	0.004 (≈ 0.00891 µM)	0.06 (≈ 0.134 µM)	
COc1c(N2C[C@@H]3C[C@@H](O)[C@@H](O)[C@@H]3C2)c(F)cc2c(=O)c(C(=O)O)cn(C3CC3)c12	0.015 (≈ 0.0358 µM)	0.06 (≈ 0.143 µM)	0.25 (≈ 0.597 µM)	
COc1c(N2CCC(CO)C2)c(F)cc2c(=O)c(C(=O)O)cn(C3CC3)c12 (centres unmarked) [drawing 309]	0.002 (≈ 0.00531 µM)	0.004 (≈ 0.0106 µM)	0.03 (≈ 0.0797 µM)	
Cc1c(N2CCC(C(O)C(F)F)C2)c(F)cc2c(=O)c(C(=O)O)cn(C3CC3)c12 (centres unmarked) [drawing 310]	0.008 (≈ 0.0195 µM)	0.008 (≈ 0.0195 µM)	0.06 (≈ 0.146 µM)	
O=C(O)c1cn(C2CC2)c2c(Cl)c(N3CCC(C(O)C(F)F)C3)c(F)cc2c1=O (centres unmarked) [drawing 312]	0.004 (≈ 0.00928 µM)	0.008 (≈ 0.0186 µM)	0.06 (≈ 0.139 µM)	
Cc1c(N2CCC(C(C)O)C2)c(F)cc2c(=O)c(C(=O)O)cn(C3CC3)c12 (centres unmarked) [drawing 315]	0.002 (≈ 0.00534 µM)		0.06 (≈ 0.16 µM)	Minimum Inhibitory Concentrations M. catarrhalis BC-3531 (M. catarrhalis BC-3531): 0.002 µg/mL
COc1c(N2CCC(C(C)O)C2)c(F)cc2c(=O)c(C(=O)O)cn(C3CC3)c12 (centres unmarked) [drawing 316]	0.008 (≈ 0.0205 µM)	0.015 (≈ 0.0384 µM)	0.125 (≈ 0.32 µM)	
Cc1c(N2CCC(C(C)O)C2)c(F)cc2c(=O)c(C(=O)O)cn(C3CC3)c12 (centres unmarked) [drawing 317]				Minimum Inhibitory Concentrations H. influenzae HI-3542 (H. influenzae HI-3542; Gram Negative Bacteria): 0.004 µg/mL; Minimum Inhibitory Concentrations M. catarrhalis BC-3531 (M. catarrhalis BC-3531): 0.008 µg/mL; Minimum Inhibitory Concentrations E. coli EC-2549 (E. coli EC-2549; Gram Negative Bacteria): 0.06 µg/mL
COc1c(N2CCC(C(O)CO)C2)c(F)cc2c(=O)c(C(=O)O)cn(C3CC3)c12 (centres unmarked) [drawing 322]	0.015 (≈ 0.0369 µM)	0.04 (≈ 0.0984 µM)	0.03 (≈ 0.0738 µM)	
O=C(O)c1cn(C2CC2)c2c(Cl)c(N3CCC(C(O)CO)C3)c(F)cc2c1=O (centres unmarked) [drawing 324]	0.004 (≈ 0.00974 µM)	0.016 (≈ 0.0389 µM)	0.06 (≈ 0.146 µM)	
Nc1nc(-n2cc(C(=O)O)c(=O)c3cc(F)c(N4CCC(C(O)CO)C4)c(Cl)c32)c(F)cc1F (centres unmarked) [drawing 326]	0.008 (≈ 0.016 µM)	0.125 (≈ 0.251 µM)	0.25 (≈ 0.501 µM)	
Cc1c(N2CCC(C(C)O)C2)c(F)cc2c(=O)c(C(=O)O)cn(C3CC3)c12 (centres unmarked) [drawing 344]				MIC (S. pneumo SV-1): 0.03 µg/mL (≈ 0.0801 µM); MIC (E. faecalis MGH-2): 0.06 µg/mL (≈ 0.16 µM); MIC (S pyogenes C203): 0.06 µg/mL (≈ 0.16 µM)
COc1c(N2CCC(C(C)O)C2)c(F)cc2c(=O)c(C(=O)O)cn(C3CC3)c12 (centres unmarked) [drawing 345]				MIC (S. pneumo SV-1): 0.06 µg/mL (≈ 0.154 µM); MIC (E. faecalis MGH-2): 0.125 µg/mL (≈ 0.32 µM); MIC (S pyogenes C203): 0.125 µg/mL (≈ 0.32 µM)

Further lines, with some results ahead:

MIC (H. influenzae HI-3542) [µg/mL]	MIC (M. catarrhalis BC-3531) [µg/mL]	MIC (E. coli EC-2549) [µg/mL]	Structure (SMILES)	other results
0.008 (≈ 0.019 µM)	0.015 (≈ 0.0357 µM)	0.06 (≈ 0.143 µM)	COc1c(N2CCC(C(CO)CO)C2)c(F)cc2c(=O)c(C(=O)O)cn(C3CC3)c12 (centres unmarked) [drawing 307]	
0.03 (≈ 0.0801 µM)	0.015 (≈ 0.0401 µM)	0.06 (≈ 0.16 µM)	Cc1c(N2CCC(CCO)C2)c(F)cc2c(=O)c(C(=O)O)cn(C3CC3)c12 (centres unmarked) [drawing 308]	
0.015 (≈ 0.0352 µM)	0.03 (≈ 0.0704 µM)	0.125 (≈ 0.293 µM)	COc1c(N2CCC(C(O)C(F)F)C2)c(F)cc2c(=O)c(C(=O)O)cn(C3CC3)c12 (centres unmarked) [drawing 311]	
0.008 (≈ 0.0154 µM)	0.015 (≈ 0.0289 µM)	0.25 (≈ 0.482 µM)	Nc1nc(-n2cc(C(=O)O)c(=O)c3cc(F)c(N4CCC(C(O)C(F)F)C4)c(Cl)c32)c(F)cc1F (centres unmarked) [drawing 313]	
0.008 (≈ 0.0201 µM)	0.016 (≈ 0.0403 µM)	0.125 (≈ 0.315 µM)	O=C(O)c1cn(C2CC2)c2nc(N3CCC(C(O)C(F)F)C3)c(F)cc2c1=O (centres unmarked) [drawing 314]	
0.06 (≈ 0.115 µM)	0.125 (≈ 0.24 µM)	2 (≈ 3.84 µM)	COc1c(N2CCC(C(O)c3ccc(S(C)(=O)=O)o3)C2)c(F)cc2c(=O)c(C(=O)O)cn(C3CC3)c12 (centres unmarked) [drawing 319]	
0.03 (≈ 0.0672 µM)		0.25 (≈ 0.56 µM)	COc1c(N2CCC(C(O)C3(CO)CC3)C2)c(F)cc2c(=O)c(C(=O)O)cn(C3CC3)c12 (centres unmarked) [drawing 320]	
0.008 (≈ 0.0177 µM)	0.016 (≈ 0.0355 µM)	0.06 (≈ 0.133 µM)	O=C(O)c1cn(C2CC2)c2c(Cl)c(N3CCC(C(O)C4(CO)CC4)C3)c(F)cc2c1=O (centres unmarked) [drawing 321]	
0.5 (≈ 1.28 µM)	1 (≈ 2.56 µM)	4 (≈ 10.2 µM)	Cc1c(N2CCC(C(O)CO)C2)c(F)cc2c(=O)c(C(=O)O)cn(C3CC3)c12 (centres unmarked) [drawing 323]	
0.004 (≈ 0.00861 µM)	0.015 (≈ 0.0323 µM)	0.06 (≈ 0.129 µM)	Nc1nc(-n2cc(C(=O)O)c(=O)c3cc(F)c(N4CCC(C(O)CO)C4)cc32)c(F)cc1F (centres unmarked) [drawing 325]	
